Reference: publication PMC8482815, “Targeting Host Glycolysis as a Strategy for Antimalarial Development” (Frontiers in Cellular and Infection Microbiology, 2021)
“And” between values parts separate entries of the source, which are not always exact repeats. Equal values may be shown once.

System: human erythrocytes
Assay: Untargeted metabolomics and 13C-glucose tracing of enolase inhibitor treated erythrocytes
Assay type: cell-based
Conditions: 6h
Procedure: Freshly collected erythrocytes were washed, resuspended to 10% hematocrit in buffer [25mM HEPES (pH 7.4), 120mM NaCl, 5.4mM KCl, 1.8mM CaCl2, and 1mM NaH2PO4], incubated for 1 hour at 37°C, then centrifuged at 2000xg for 5 minutes at 4°C, resuspended in fresh wash buffer to 30-40% hematocrit, and split into 210µL aliquots of packed erythrocytes. […] All samples were incubated at 37°C shaking at 500 RPM. Triplicate samples of supernatants and packed erythrocytes were collected at 0, 0.5, 1, and 6-hour intervals and snap-frozen in liquid N2.
RBC and media samples were extracted at 1:10 and 1:20 dilutions, respectively, in 5:3:2 MeOH : MeCN:H2O v/v/v, and supernatants analyzed on a Thermo Vanquish UHPLC coupled to a Thermo Q Exactive mass spectrometer, as extensively described ([Nemkov et al., 2015]; [Nemkov et al., 2017]). The extraction buffer was supplemented with 40uM 3-^13C lactate to allow absolute quantification of lactate isotopologues, including lactate generated via glycolysis ([1,2,3-^13C3] enriched) vs. the pentose phosphate pathway ([2,3-^13C2] enriched), as described ([Reisz et al., 2016]). Metabolite assignments, peak area integration and isotopologues distributions were determined using Maven (Princeton University) ([Nemkov et al., 2015]; [Nemkov et al., 2017]).
Data were auto-scaled and normalized to zero-hour time points. Metabolites were removed from the dataset if greater than 50% of the samples contained missing values or the relative standard deviation among replicates exceeded 25%. Additionally, data was filtered using the interquartile range to reduce near-constant values from the experiment by 5%.
A principal component analysis of preprocessed data was plotted with the 95% confidence interval minimum volume enclosing ellipsoid for each respective group (MetaboAnalyst, cluster, plotly). A two-way repeated measures analysis of variance (ANOVA) was performed with multiple comparisons corrected for using a false discovery rate p-value cutoff of 0.05. Metabolite-Pathway analysis was performed using the R package of MetaboAnalyst, as previously described ([Xia and Wishart, 2010]). Metabolite-Protein nodal analysis was performed using omicsnet.ca and as previously described ([Zhou and Xia, 2018]).

[1] = treated erythrocytes, one value per replicate sample, polarity +
[2] = treated erythrocytes, one value per replicate sample, polarity -
[3] = treated erythrocytes, replicate samples

CC(C)(C)C(=O)OCOP(=O)(OCOC(=O)C(C)(C)C)C1CC(O)N(O)C1=O (stereo not shown) [POMSF]
AMP level (metabolomics signal) (replicate samples): 5.02E+05 and 4.09E+05 and 5.85E+05 | ATP level (metabolomics signal) (replicate samples): 1.58E+04 and 9.84E+04 and 9.63E+04 | Adenine level (metabolomics signal) (replicate samples): 7.75E+04 and 1.23E+05 and 1.12E+05 | Cytosine level (metabolomics signal) (replicate samples): 8.05E+04 and 4.16E+04 and 5.19E+04 | L-alanine level (metabolomics signal) (replicate samples): 8.35E+06 and 9.19E+06 and 8.31E+06 | L-arginine level (metabolomics signal) (replicate samples): 2.95E+06 and 0.00E+00 and 2.67E+06 | L-asparagine level (metabolomics signal) (replicate samples): 5.77E+06 and 5.60E+06 and 5.22E+06 | L-aspartate level (metabolomics signal) (replicate samples): 1.31E+07 and 1.25E+07 and 1.18E+07 | L-cysteine level (metabolomics signal) (replicate samples): 3.97E+05 and 1.14E+05 and 2.20E+05 | L-glutamate level (metabolomics signal) (replicate samples): 7.50E+06 and 6.15E+06 and 6.74E+06 | L-glutamine level (metabolomics signal) (replicate samples): 6.26E+07 and 5.76E+07 and 5.48E+07 | L-histidine level (metabolomics signal) (replicate samples): 1.46E+06 and 1.38E+06 and 1.44E+06 | L-isoleucine level (metabolomics signal) (replicate samples): 1.17E+07 and 1.31E+07 and 1.49E+07 | L-leucine level (metabolomics signal) (replicate samples): 1.27E+08 and 1.58E+08 and 2.15E+08 | L-lysine level (metabolomics signal) (replicate samples): 1.43E+06 and 1.33E+06 and 1.52E+06 | L-methionine level (metabolomics signal) (replicate samples): 1.27E+07 and 1.48E+07 and 1.83E+07 | L-phenylalanine level (metabolomics signal) (replicate samples): 6.89E+06 and 7.47E+06 and 8.39E+06 | L-proline level (metabolomics signal) (replicate samples): 7.25E+07 and 6.63E+07 and 6.78E+07 | L-serine level (metabolomics signal) (replicate samples): 4.64E+06 and 4.68E+06 and 4.28E+06 | L-threonine level (metabolomics signal) (replicate samples): 6.95E+06 and 7.99E+06 and 7.08E+06 | L-tryptophan level (metabolomics signal) (replicate samples): 1.43E+06 and 1.21E+06 and 1.71E+06 | L-tyrosine level (metabolomics signal) (replicate samples): 1.74E+07 and 2.17E+07 and 2.50E+07 | L-valine level (metabolomics signal) (replicate samples): 1.73E+08 (2×) and 1.89E+08 | dCMP level (metabolomics signal) (replicate samples): 0.00E+00 and 1.19E+04 and 1.51E+04 | dTMP level (metabolomics signal) (replicate samples): 2.61E+04 and 1.28E+06 and 7.09E+05 | glycine level (metabolomics signal) (replicate samples): 1.74E+06 and 1.71E+06 and 1.54E+06 | N-Acyl-D-aspartate (C06380) metabolite signal [1]: 6.19E+04 and 7.22E+04 and 7.18E+04 | Poly-gamma-D-glutamate (C05723) metabolite signal [1]: 4.28E+07 and 3.89E+07 and 3.91E+07 | D-Ribitol 5-phosphate (C01068) metabolite signal [2]: 0.00E+00 and 1.62E+04 and 1.65E+04 | D-glucono-1,5-lactone (C00198) metabolite signal [2]: 1.21E+04 and 2.10E+05 and 2.85E+05 | L-Noradrenaline (C00547) metabolite signal [2]: 1.67E+04 and 1.81E+04 and 3.13E+04 | Oxalosuccinate (C05379) metabolite signal [2]: 3.74E+04 and 9.19E+04 and 1.02E+05 | Pyridoxamine (C00534) metabolite signal [2]: 1.97E+04 and 7.81E+03 and 6.44E+03 | Thioredoxin disulfide (C00343) metabolite signal [2]: 0.00E+00 and 8.04E+04 and 2.51E+04 | 1-4-beta-D-Xylan (metabolite signal) [3]: 2.44E+04 and 1.72E+05 and 1.77E+05 | 2-Hydroxyglutarate/Citramalate (C02630) metabolite signal [3]: 8.76E+03 and 5.83E+04 and 8.08E+04 | 5-6-Dihydrothymine (C00906) metabolite signal [3]: 7.42E+04 and 3.03E+05 and 2.79E+05 | 5-10-Methenyltetrahydrofolate (metabolite signal) [3]: 1.08E+05 and 1.27E+05 (2×) | 5-Hydroxyisourate (C11821) metabolite signal [3]: 4.60E+06 and 7.03E+06 and 4.57E+06 | 5-L-Glutamyl-taurine (metabolite signal) [3]: 1.69E+05 and 1.70E+05 and 1.66E+05 | 5-Oxoproline (metabolite signal) [3]: 7.65E+04 and 8.27E+05 and 8.67E+05 | (S)(+)-Allantoin (C02350) metabolite signal [3]: 1.76E+03 and 8.43E+03 and 0.00E+00 | Allantoate (C00499) metabolite signal [3]: 5.45E+05 and 3.06E+05 and 4.74E+05 | Ascorbate (metabolite signal) [3]: 3.17E+02 and 8.49E+04 and 7.10E+04 | CMP-N-acetylneuraminate (metabolite signal) [3]: 0.00E+00 and 1.60E+04 and 3.30E+04 | Carnosine (metabolite signal) [3]: 1.68E+05 and 2.26E+05 and 1.66E+05 | Citrate (C00158) metabolite signal [3]: 1.56E+03 and 1.77E+04 and 2.42E+04 | Creatine (metabolite signal) [3]: 1.60E+08 and 1.66E+08 and 1.57E+08 | Creatinine (metabolite signal) [3]: 2.21E+06 and 2.25E+06 and 2.28E+06 | Cys-Gly (metabolite signal) [3]: 7.06E+05 and 5.27E+05 and 4.56E+05 | D-Glucosamine (metabolite signal) [3]: 2.84E+05 and 2.82E+05 and 2.01E+05 | D-Glucose (C00031) metabolite signal [3]: 3.39E+04 and 4.32E+06 and 3.64E+06 | D-Ribose (C00121) metabolite signal [3]: 1.37E+04 and 1.43E+05 and 1.11E+05 | Dehydroascorbate (metabolite signal) [3]: 0.00E+00 and 3.73E+04 and 1.82E+04 | Dihydrofolate (metabolite signal) [3]: 1.85E+06 and 9.70E+05 and 1.18E+06 | Dimethylglycine (metabolite signal) [3]: 7.46E+05 and 8.20E+05 and 5.98E+05 | Diphosphate (C00013) metabolite signal [3]: 0.00E+00 and 2.99E+04 and 2.16E+04 | Fumarate (C00122) metabolite signal [3]: 3.34E+03 and 7.81E+04 and 1.06E+05 | Glutathione (C00051) metabolite signal [3]: 4.14E+07 and 3.33E+07 and 3.37E+07 | Glutathione disulfide (metabolite signal) [3]: 0.00E+00 and 1.62E+05 and 3.64E+05 | Hypoxanthine (C00262) metabolite signal [3]: 7.62E+03 and 4.26E+03 and 3.54E+03 | IMP (C00130) metabolite signal [3]: 1.27E+04 and 8.26E+04 and 5.76E+04 | Inosine (C00294) metabolite signal [3]: 1.21E+03 and 4.59E+04 and 5.50E+04 | L-Citrulline (metabolite signal) [3]: 2.43E+06 and 3.35E+06 and 2.92E+06 | L-Homoserine (metabolite signal) [3]: 1.60E+04 and 2.75E+05 and 2.50E+05 | Lactate (C01432) metabolite signal [3]: 9.68E+05 and 1.69E+07 and 1.76E+07 | Malate (C00149) metabolite signal [3]: 3.14E+03 and 1.07E+05 and 1.56E+05 | Mannitol (C00392) metabolite signal [3]: 6.48E+03 and 1.86E+05 and 1.78E+05 | N-Acetylneuraminate (metabolite signal) [3]: 0.00E+00 and 1.33E+04 and 1.50E+04 | N-Glycoloyl-neuraminate (metabolite signal) [3]: 0.00E+00 and 1.02E+05 and 7.37E+04 | NAD+ (C00003) metabolite signal [3]: 5.65E+04 and 4.00E+04 and 9.30E+04 | Nicotinamide (C00153) metabolite signal [3]: 2.54E+07 and 3.18E+07 and 2.67E+07 | Ornithine (metabolite signal) [3]: 1.63E+06 and 1.68E+06 and 1.77E+06 | Oxaloacetate (C00036) metabolite signal [3]: 1.48E+03 and 3.44E+04 and 3.60E+04 | Phosphoserine (metabolite signal) [3]: 5.41E+04 and 5.91E+04 and 2.74E+04 | Putrescine (metabolite signal) [3]: 3.78E+04 and 4.55E+04 and 4.46E+04 | Pyridoxal (C00250) metabolite signal [3]: 3.76E+04 and 4.39E+04 and 5.36E+04 | Pyruvate (C00022) metabolite signal [3]: 8.68E+04 and 2.04E+06 and 2.17E+06 | S-Glutathionyl-L-cysteine (metabolite signal) [3]: 0.00E+00 and 1.18E+05 and 1.30E+05 | Sedoheptulose 1-phosphate (C06222) metabolite signal [3]: 0.00E+00 and 1.66E+04 and 1.92E+04 | Spermidine (metabolite signal) [3]: 6.37E+06 and 6.43E+06 and 6.27E+06 | Spermine (metabolite signal) [3]: 8.12E+06 and 8.01E+06 and 7.75E+06 | Succinate (C00042) metabolite signal [3]: 1.40E+04 and 6.55E+04 and 4.55E+04 | Thymidine (C00214) metabolite signal [3]: 4.03E+04 and 7.72E+03 and 7.98E+03 | UDP (C00015) metabolite signal [3]: 0.00E+00 and 1.32E+05 and 7.27E+04 | UDP-N-acetyl-D-glucosamine (metabolite signal) [3]: 0.00E+00 and 6.00E+03 and 1.01E+04 | UDP-glucose (C00029) metabolite signal [3]: 0.00E+00 and 8.80E+03 and 1.03E+04 | Urate (C00366) metabolite signal [3]: 1.39E+04 and 2.30E+04 and 2.01E+04 | Xanthine (C00385) metabolite signal [3]: 8.29E+04 and 9.81E+04 and 9.24E+04 | alpha-D-Glucosamine 1-phosphate (metabolite signal) [3]: 8.54E+05 and 1.67E+06 and 1.26E+06 | alpha-D-Ribose 1-phosphate (C00620) metabolite signal [3]: 0.00E+00 and 2.89E+04 and 3.75E+04 | gamma-Glutamyl-gamma-aminobutyrate (metabolite signal) [3]: 5.89E+04 and 6.64E+04 and 6.00E+04 | gamma-L-Glutamyl-D-alanine (metabolite signal) [3]: 3.86E+02 and 3.06E+04 and 3.37E+04 | gamma-L-Glutamyl-L-cysteine (metabolite signal) [3]: 4.08E+03 and 2.68E+04 and 3.24E+04
